{"source": "patent US20260152751A1", "about": "“INTERFERING RNA FOR INHIBITING JAK1 GENE EXPRESSION AND USE THEREOF” (Jenkem Technology Co., Ltd. (BEIJING), priority 2024, published 2026)", "note": "[Ψ] = pseudouridine; d = 2'-deoxy (DNA); r = 2'-OH (RNA)", "data": [{"tested_on": "JAK1 gene", "assay": "siRNA screening: qPCR of JAK1 relative expression in transfected 293T cells", "format": "cell-based, human", "settings": "siRNA 50 nM, 48 h after transfection, GAPDH reference, siNC = 100.00", "method": "(§1) One day prior to transfection, 293T cells were seeded into a 24-well cell culture plate at 1×10^5 cells/well, and the culture medium was 500 μL of DMEM containing 10% FBS and 1% penicillin-streptomycin. Three replicate wells were made for each group. The culture plate was placed in an incubator with 5% CO2 at 37° C. for 24 h to allow the cells to adhere to the wall. On the day of transfection, the culture medium was changed to 450 μL of DMEM culture medium without antibiotics (containing 10% FBS). The siRNAs were diluted with 25 μL of Opti-MEM culture medium, and the control group was siNC at the same concentration; a Lipofectamine™RNAiMAX transfection reagent (Lip) was diluted with another 25 μL of Opti-MEM culture medium, and the mixture was left to stand at room temperature for 5 min; and the two dilutions were uniformly mixed and left to stand at room temperature for 5 min. 50 μL of the mixed solution described above was added to each well to obtain a final transfection volume of 500 μL, and the working concentration of the siRNA was 50 nM. After the cells were further cultured in an incubator with 5% CO2 at 37° C. for 48 h, the total RNA of the cells was extracted.\nRNA was extracted using Eastep™ Super total RNA extraction kit, with the detailed procedures as follows:\n1) 300 μL of RNA lysis solution and 300 μL of RNA diluent were added into each well of the 24-well cell culture plate, and the mixture was uniformly mixed and subsequently transferred to a 1.5 mL centrifuge tube. The mixture was centrifuged at 14000 g for 10 min, and the supernatant was carefully pipetted into a new 1.5 mL centrifuge tube.\n2) A 0.5-fold volume of absolute ethanol was added, and the mixture was uniformly mixed by allowing the tube to be repeatedly upside down 15-20 times. Subsequently, the mixture was transferred to a centrifuge column and centrifuged at 12000 g for 1 min. The filtrate was discarded.\n3) 600 μL of RNA wash buffer was added, and the mixture was centrifuged at 12000 g for 1 min. The filtrate was discarded.\n4) 50 μL of DNase I incubation buffer was added, followed by DNA digestion at room temperature for 15 min.\n5) 600 μL of RNA wash buffer was added, the mixture was centrifuged at 12000 g for 1 min, and the filtrate was discarded. This procedure was repeated once. Subsequently, the mixture was centrifuged at 14000 g for 2 min to remove the residual RNA wash buffer, and then the centrifuge column was placed in a collection tube.\n6) A proper amount of RNase-free H2O was added, and the mixture was left to stand for 15 min at room temperature, followed by centrifugation at 14000 g for 1 min. The RNA quality and concentration were detected using NanoDrop™. The extracted RNA was incubated at 70° C. for 5 min and immediately placed in an ice bath for 5 min for later use.\n(§2) 1) The RNA was reverse-transcribed into a cDNA template using the All-in-One First-Strand Synthesis MasterMix (LABLEAD, Cat. No.: F0202) kit. The reaction system was established according to Table 2, where all components were mixed uniformly and centrifuged to collect the liquid at the bottom of a tube, and the PCR program was run according to the settings of 37° C. for 2 min, 55° C. for 15 min, and 85° C. for 5 min, thereby giving the cDNA template.\n(§3) 2) The gene expression level was detected using the Taq SYBR® Green qPCR Premix (LABLEAD, Cat. No.: R0202) kit, and the qPCR system was established according to Table 3. All components were mixed uniformly and centrifuged to collect the liquid at the bottom of a tube, and the PCR program was run according to the following settings: • Step1: 95° C. 30 s; • Step2: 95° C. 10 s; • Step3: 60° C. 30 s+Plate Read; • Step4: Go to Step2, 40 times; • Step5: Melt Curve 65 to 95° C., increment 0.5° C., for 5 s+Plate Read.\n(§4) GAPDH was used as an endogenous reference to detect the relative expression level of JAK1 gene, and the sequences of the primers used are as follows: […]", "values": [{"substance": "siJAK1-474: siRNA targeting JAK1; sense strand SEQ ID NO: 15 dTdT, antisense strand SEQ ID NO: 29 dTdT (sense GAAUAAAUGCAGUAUCUAA; antisense UUAGAUACUGCAUUUAUUC; listed as RNA, chemistry not fully specified)", "Relative expression level of JAK1, Mean value (Mean)": 20.24}, {"substance": "siJAK1-826: siRNA targeting JAK1; sense strand SEQ ID NO: 16 dTdT, antisense strand SEQ ID NO: 30 dTdT (sense GGCAUGGAACCAACGACAA; antisense UUGUCGUUGGUUCCAUGCC; listed as RNA, chemistry not fully specified)", "Relative expression level of JAK1, Mean value (Mean)": 14.18}, {"substance": "siJAK1-1131: siRNA targeting JAK1; sense strand SEQ ID NO: 17, antisense strand SEQ ID NO: 31 (sense GCGAUAUAUUCCAGAAACAUU; antisense UGUUUCUGGAAUAUAUCGCUU; listed as RNA, chemistry not fully specified)", "Relative expression level of JAK1, Mean value (Mean)": 23.55}, {"substance": "siJAK1-2200: siRNA targeting JAK1; sense strand SEQ ID NO: 18 dTdT, antisense strand SEQ ID NO: 32 dTdT (sense GUUUCGAUCGGAUCCUCAA; antisense UUGAGGAUCCGAUCGAAAC; listed as RNA, chemistry not fully specified)", "Relative expression level of JAK1, Mean value (Mean)": 34.77}, {"substance": "siJAK1-2714: siRNA targeting JAK1; sense strand SEQ ID NO: 19 dTdT, antisense strand SEQ ID NO: 33 dTdT (sense GGUGCUGUCUAGGCAAGAA; antisense UUCUUGCCUAGACAGCACC; listed as RNA, chemistry not fully specified)", "Relative expression level of JAK1, Mean value (Mean)": 19.12}, {"substance": "siJAK1-3283: siRNA targeting JAK1; sense strand SEQ ID NO: 20 dTdT, antisense strand SEQ ID NO: 34 dTdT (sense AGAACAUUGUGAAGUACAA; antisense UUGUACUUCACAAUGUUCU; listed as RNA, chemistry not fully specified)", "Relative expression level of JAK1, Mean value (Mean)": 16.41}, {"substance": "siJAK1-3630: siRNA targeting JAK1; sense strand SEQ ID NO: 21 dTdT, antisense strand SEQ ID NO: 35 dTdT (sense GAAUGUUUAAUGCAAUCUA; antisense UAGAUUGCAUUAAACAUUC; listed as RNA, chemistry not fully specified)", "Relative expression level of JAK1, Mean value (Mean)": 25.58}, {"substance": "siJAK1-4096: siRNA targeting JAK1; sense strand SEQ ID NO: 22 dTdT, antisense strand SEQ ID NO: 36 dTdT (sense GGCACACUGUAGUGCUUAA; antisense UUAAGCACUACAGUGUGCC; listed as RNA, chemistry not fully specified)", "Relative expression level of JAK1, Mean value (Mean)": 38.56}, {"substance": "siJAK1-4359: siRNA targeting JAK1; sense strand SEQ ID NO: 23, antisense strand SEQ ID NO: 37 (sense CACAUUAAUCAUAGAUAAAGA; antisense UUUAUCUAUGAUUAAUGUGCC; listed as RNA, chemistry not fully specified)", "Relative expression level of JAK1, Mean value (Mean)": 31.11}, {"substance": "siJAK1-4389: siRNA targeting JAK1; sense strand SEQ ID NO: 24, antisense strand SEQ ID NO: 38 (sense GGACUUAGCCCUCAAAUUUCA; antisense AAAUUUGAGGGCUAAGUCCAU; listed as RNA, chemistry not fully specified)", "Relative expression level of JAK1, Mean value (Mean)": 27.56}, {"substance": "siJAK1-4410: siRNA targeting JAK1; sense strand SEQ ID NO: 25 dTdT, antisense strand SEQ ID NO: 39 dTdT (sense CAGUAUCUAUACAGUACUA; antisense UAGUACUGUAUAGAUACUG; listed as RNA, chemistry not fully specified)", "Relative expression level of JAK1, Mean value (Mean)": 24.41}, {"substance": "siJAK1-4627: siRNA targeting JAK1; sense strand SEQ ID NO: 26 dTdT, antisense strand SEQ ID NO: 40 dTdT (sense GCAUGUUAAUUCUCAAGAA; antisense UUCUUGAGAAUUAACAUGC; listed as RNA, chemistry not fully specified)", "Relative expression level of JAK1, Mean value (Mean)": 38.64}, {"substance": "siJAK1-5026: siRNA targeting JAK1; sense strand SEQ ID NO: 27 dTdT, antisense strand SEQ ID NO: 41 dTdT (sense GAUUCAAUGUGAACGAUUA; antisense UAAUCGUUCACAUUGAAUC; listed as RNA, chemistry not fully specified)", "Relative expression level of JAK1, Mean value (Mean)": 32.40}, {"substance": "siJAK1-5034: siRNA targeting JAK1; sense strand SEQ ID NO: 28, antisense strand SEQ ID NO: 42 (sense GAACGAUUACGGUCUUUAUGA; antisense AUAAAGACCGUAAUCGUUCAC; listed as RNA, chemistry not fully specified)", "Relative expression level of JAK1, Mean value (Mean)": 35.89}, {"substance": "siNC: non-targeting control sequence; sense strand SEQ ID NO: 43, antisense strand SEQ ID NO: 44 (sense UUCUCCGAACGUGUCACGUTT; antisense ACGUGACACGUUCGGAGAATT; Bought control siRNA with 3' TT overhangs, chemistry not given here, further chemistry not given here) [reference compound]", "Relative expression level of JAK1, Mean value (Mean)": 100.00}]}, {"tested_on": "JAK1 gene", "assay": "qPCR of JAK1 expression in HaCaT cells transfected with modified siJAK1", "format": "cell-based, human", "settings": "siRNA 50 nM, 48 h after transfection, JAK1 by qPCR, siNC = 100.00", "method": "as §1, §2, §3, §4\nAccording to the method described in Example 2, human keratinocyte HaCaT cells were transfected with the modified siJAK1 at an siRNA working concentration of 50 nM. The expression level of JAK1 was detected by qPCR 48 h after the transfection. The controls included siNC and unmodified siJAK1 at the same concentration.", "values": [{"substance": "siJAK1-826-m4: pseudouridine-modified siJAK1-826; sense strand SEQ ID NO: 49, antisense strand SEQ ID NO: 53 (sense GGCAUGGAACCAACGACAAUU; antisense UUGUCGUUGGUUCCAUGCCTT; sense: sugars from the 5' end r19 d2, [Ψ] at 5, backbone and T or U not given here; antisense: sugars from the 5' end r19 d2, [Ψ] at 1, 2, 4, 7, 8, 11, 12, 16, backbone not given here)", "Relative expression level, Mean value (Mean)": 13.55}, {"substance": "siJAK1-826: siRNA targeting JAK1; sense strand SEQ ID NO: 16 dTdT, antisense strand SEQ ID NO: 30 dTdT (sense GGCAUGGAACCAACGACAA; antisense UUGUCGUUGGUUCCAUGCC; listed as RNA, chemistry not fully specified)", "Relative expression level, Mean value (Mean)": 13.33}, {"substance": "siJAK1-3283-m10: pseudouridine-modified siJAK1-3283; sense strand SEQ ID NO: 50, antisense strand SEQ ID NO: 54 (sense AGAACAUUGUGAAGUACAATT; antisense UUGUACUUCACAAUGUUCUTT; sense: sugars from the 5' end r19 d2, [Ψ] at 7, 8, 10, 15, backbone not given here; antisense: sugars from the 5' end r19 d2, [Ψ] at 1, 2, 4, 7, 8, 14, 16, 17, 19, backbone not given here)", "Relative expression level, Mean value (Mean)": 15.89}, {"substance": "siJAK1-3283: siRNA targeting JAK1; sense strand SEQ ID NO: 20 dTdT, antisense strand SEQ ID NO: 34 dTdT (sense AGAACAUUGUGAAGUACAA; antisense UUGUACUUCACAAUGUUCU; listed as RNA, chemistry not fully specified)", "Relative expression level, Mean value (Mean)": 14.73}, {"substance": "siNC: non-targeting control sequence; sense strand SEQ ID NO: 43, antisense strand SEQ ID NO: 44 (sense UUCUCCGAACGUGUCACGUTT; antisense ACGUGACACGUUCGGAGAATT; Bought control siRNA with 3' TT overhangs, chemistry not given here, further chemistry not given here) [reference compound]", "Relative expression level, Mean value (Mean)": 100.00}]}]}
